Results taken from patent US6737383B1, “Herbicidal oxadiazolidines” (priority 1999, dated 2004).

Experiments:
smallflower flatsedge = test: Test B flood test smallflower flatsedge; format: in vivo, Cyperus difformis
Summary of the method: (§1)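 Flood test on plants grown to the 2-leaf stage; treated plants kept in greenhouse twelve to sixteen days, then visually rated against controls on a 0 (no effect) to 10 (complete control) scale.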

pigweed = test: Test B pre/postemergence pigweed; format: in vivo, Amaranthus retroflexus; details: for Redroot pigweed plant response rating: scale of 0 to 10 where 0 is no effect and 10 is complete control
Summary of the method: (§2)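 Herbicidal effect was estimated by eye on a ten-point control scale after plants spent twelve to sixteen days in a greenhouse following soil or foliar treatment. Foliar sprays targeted plants at one to four leaves; all doses were formulated in a non-phytotoxic solvent with surfactant.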

wild oat = test: Test B pre/postemergence wild oat; format: in vivo, Avena fatua; details: for Wild oats plant response rating: scale of 0 to 10 where 0 is no effect and 10 is complete control
Summary of the method: as §2

morningglory = test: Test B pre/postemergence morningglory; format: in vivo, Ipomoea hederacea; details: for Morningglory plant response rating: scale of 0 to 10 where 0 is no effect and 10 is complete control
Summary of the method: as §2

crabgrass = test: Test B pre/postemergence crabgrass; format: in vivo, Digitaria sanguinalis; details: for Crabgrass plant response rating: scale of 0 to 10 where 0 is no effect and 10 is complete control
Summary of the method: as §2

bedstraw = test: Test B pre/postemergence bedstraw; format: in vivo, Galium aparine; details: Preemergence
Summary of the method: as §2

duck salad = test: Test B flood test duck salad; format: in vivo, Heteranthera limosa
Summary of the method: as §1

soybean = test: Test B pre/postemergence soybean; format: in vivo, Glycine max; details: for Soybean plant response rating: scale of 0 to 10 where 0 is no effect and 10 is complete control
Summary of the method: as §2

velvetleaf = test: Test B pre/postemergence velvetleaf; format: in vivo, Abutilon theophrasti; details: for Velvetleaf plant response rating: scale of 0 to 10 where 0 is no effect and 10 is complete control
Summary of the method: as §2

rice = test: Test B flood test rice; format: in vivo, Oryza sativa
Summary of the method: as §1

cocklebur = test: Test B pre/postemergence cocklebur; format: in vivo, Xanthium strumarium; details: for Cocklebur plant response rating: scale of 0 to 10 where 0 is no effect and 10 is complete control
Summary of the method: as §2

rape = test: Test B pre/postemergence rape; format: in vivo, Brassica napus; details: for Rape plant response rating: scale of 0 to 10 where 0 is no effect and 10 is complete control
Summary of the method: as §2

corn = test: Test B pre/postemergence corn; format: in vivo, Zea mays; details: for Corn plant response rating: scale of 0 to 10 where 0 is no effect and 10 is complete control
Summary of the method: as §2

giant foxtail = test: Test B pre/postemergence giant foxtail; format: in vivo, Setaria faberii; details: for Giant foxtail plant response rating: scale of 0 to 10 where 0 is no effect and 10 is complete control
Summary of the method: as §2

wheat = test: Test B pre/postemergence wheat; format: in vivo, Triticum aestivum; details: for Wheat plant response rating: scale of 0 to 10 where 0 is no effect and 10 is complete control
Summary of the method: as §2

purple nutsedge = test: Test B pre/postemergence purple nutsedge; format: in vivo, Cyperus rotundus; details: for Nutsedge plant response rating: scale of 0 to 10 where 0 is no effect and 10 is complete control
Summary of the method: as §2

[1] = Postemergence (flood test), Rate 125 g/ha, scale 0 to 10, 0 is no effect, 10 is complete control
[2] = Rate 62 g/ha, Postemergence (flood test species), scale of 0 to 10 where 0 is no effect and 10 is complete control
[3] = Rate 62 g/ha, flood test species, Pre-emergence, visual evaluation after twelve to sixteen days
[4] = Rate 125 g/ha, Pre-emergence, flood test species, scale 0 to 10 where 0 is no effect and 10 is complete control
[5] = Rate 250 g/ha, Pre-emergence, flood-test species, scale 0 to 10, 0 is no effect, 10 is complete control
[6] = Rate 500 g/ha, listed under Postemergence (flood test species), scale 0 to 10, 0 no effect, 10 complete control
[7] = Rate 500 g/ha, Pre-emergence, flood test species, scale 0 to 10 (0 no effect, 10 complete control)
[8] = flood test species, listed under Postemergence, Rate 250 g/ha, scale 0 to 10, 0 is no effect, 10 is complete control
[9] = Postemergence, Rate 125 g/ha, scale 0 to 10, 0 is no effect, 10 is complete control
[10] = Postemergence, Rate 250 g/ha, scale 0 to 10, 0 is no effect, 10 is complete control
[11] = Preemergence, Rate 62 g/ha, scale 0 to 10 (0 no effect, 10 complete control)
[12] = Rate 500 g/ha, Postemergence, scale 0 to 10, 0 no effect, 10 complete control

CC1CC1n1c(=O)on(C(=O)N(c2ccccc2)C(C)C)c1=O (centres unmarked) [Compound 370]
Plant response rating, S. Flatsedge (smallflower flatsedge; [1]): 3 | S. Flatsedge plant response rating (smallflower flatsedge; [2]): 2 | Plant response rating, S. Flatsedge (0 to 10 scale, 0 is no effect, 10 is complete control) (smallflower flatsedge; [3]): 0 | S. Flatsedge plant response rating (smallflower flatsedge; [4]): 0 | S. Flatsedge plant response rating (smallflower flatsedge; [5]): 0 | Plant response rating, S. Flatsedge (smallflower flatsedge; [6]): 7 | S. Flatsedge plant response rating (smallflower flatsedge; [7]): 0 | Plant response rating, S. Flatsedge (smallflower flatsedge; [8]): 4 | Plant response rating, Redroot pigweed (pigweed; [9]): 0 | Plant response rating, Redroot pigweed (pigweed; [10]): 0 | Plant response rating, Redroot pigweed (pigweed; [11]): 5 | Redroot pigweed plant response rating (0 to 10 scale) (pigweed; Preemergence, Rate 125 g/ha): 7 | Redroot pigweed plant response rating (pigweed; Preemergence, Rate 250 g/ha): 10 | Redroot pigweed plant response rating (pigweed; Preemergence, Rate 500 g/ha): 10 | Redroot pigweed plant response rating (pigweed; Rate 62 g/ha, Postemergence): 0 | Plant response rating, Redroot pigweed (pigweed; [12]): 3 | Plant response rating, Wild oats (wild oat; [9]): 0 | Plant response rating, Wild oats (wild oat; [10]): 3 | Plant response rating, Wild oats (wild oat; [11]): 0 | Wild oats plant response rating (0 to 10 scale) (wild oat; Preemergence, Rate 125 g/ha): 0 | Wild oats plant response rating (wild oat; Preemergence, Rate 250 g/ha): 2 | Wild oats plant response rating (wild oat; Preemergence, Rate 500 g/ha): 10 | Wild oats plant response rating (wild oat; Rate 62 g/ha, Postemergence): 0 | Plant response rating, Wild oats (wild oat; [12]): 5 | Plant response rating, Morningglory (morningglory; [9]): 10 | Plant response rating, Morningglory (morningglory; [10]): 10 | Plant response rating, Morningglory (morningglory; [11]): 0 | Morningglory plant response rating (0 to 10 scale) (morningglory; Preemergence, Rate 125 g/ha): 0 | Morningglory plant response rating (morningglory; Preemergence, Rate 250 g/ha): 2 | Morningglory plant response rating (morningglory; Preemergence, Rate 500 g/ha): 3 | Morningglory plant response rating (morningglory; Rate 62 g/ha, Postemergence): 10 | Plant response rating, Morningglory (morningglory; [12]): 10 | Plant response rating, Crabgrass (crabgrass; [9]): 7 | Plant response rating, Crabgrass (crabgrass; [10]): 7 | Plant response rating, Crabgrass (crabgrass; [11]): 7 | Crabgrass plant response rating (0 to 10 scale) (crabgrass; Preemergence, Rate 125 g/ha): 8 | Crabgrass plant response rating (crabgrass; Preemergence, Rate 250 g/ha): 9 | Crabgrass plant response rating (crabgrass; Preemergence, Rate 500 g/ha): 10 | Crabgrass plant response rating (crabgrass; Rate 62 g/ha, Postemergence): 3 | Plant response rating, Crabgrass (crabgrass; [12]): 9 | Plant response rating, Bedstraw (bedstraw; Rate 62 g/ha, scale 0 to 10 (0 no effect, 10 complete control)): 0 | Bedstraw plant response rating (0 to 10 scale) (bedstraw; Rate 125 g/ha): 3 | Bedstraw plant response rating (bedstraw; Rate 250 g/ha, scale of 0 to 10 where 0 is no effect and 10 is complete control): 3 | Plant response rating, Ducksalad (duck salad; [1]): 2 | Ducksalad plant response rating (duck salad; [2]): 0 | Plant response rating, Ducksalad (0 to 10 scale, 0 is no effect, 10 is complete control) (duck salad; [3]): 0 | Ducksalad plant response rating (duck salad; [4]): 0 | Ducksalad plant response rating (duck salad; [5]): 0 | Plant response rating, Ducksalad (duck salad; [6]): 3 | Ducksalad plant response rating (duck salad; [7]): 0 | Plant response rating, Ducksalad (duck salad; [8]): 3 | Plant response rating, Soybean (soybean; [9]): 2 | Plant response rating, Soybean (soybean; [10]): 3 | Plant response rating, Soybean (soybean; [11]): 0 | Soybean plant response rating (0 to 10 scale) (soybean; Preemergence, Rate 125 g/ha): 0 | Soybean plant response rating (soybean; Preemergence, Rate 250 g/ha): 2 | Soybean plant response rating (soybean; Preemergence, Rate 500 g/ha): 7 | Soybean plant response rating (soybean; Rate 62 g/ha, Postemergence): 1 | Plant response rating, Soybean (soybean; [12]): 4 | Plant response rating, Velvetleaf (velvetleaf; [9]): 0 | Plant response rating, Velvetleaf (velvetleaf; [10]): 0 | Plant response rating, Velvetleaf (velvetleaf; [11]): 2 | Velvetleaf plant response rating (0 to 10 scale) (velvetleaf; Preemergence, Rate 125 g/ha): 4 | Velvetleaf plant response rating (velvetleaf; Preemergence, Rate 250 g/ha): 5 | Velvetleaf plant response rating (velvetleaf; Preemergence, Rate 500 g/ha): 6 | Velvetleaf plant response rating (velvetleaf; Rate 62 g/ha, Postemergence): 0 | Plant response rating, Velvetleaf (velvetleaf; [12]): 4 | Plant response rating, Rice (rice; [1]): 0 | Rice plant response rating (rice; [2]): 0 | Plant response rating, Rice (0 to 10 scale, 0 is no effect, 10 is complete control) (rice; [3]): 0 | Rice plant response rating (rice; [4]): 0 | Rice plant response rating (rice; [5]): 0 | Plant response rating, Rice (rice; [6]): 2 | Rice plant response rating (rice; [7]): 0 | Plant response rating, Rice (rice; [8]): 2 | Plant response rating, Cocklebur (cocklebur; [9]): 0 | Plant response rating, Cocklebur (cocklebur; [10]): 2 | Cocklebur plant response rating (0 to 10 scale) (cocklebur; Preemergence, Rate 125 g/ha): 0 | Cocklebur plant response rating (cocklebur; Preemergence, Rate 250 g/ha): 0 | Cocklebur plant response rating (cocklebur; Preemergence, Rate 500 g/ha): 10 | Cocklebur plant response rating (cocklebur; Rate 62 g/ha, Postemergence): 0 | Plant response rating, Cocklebur (cocklebur; [12]): 3 | Plant response rating, Rape (rape; [9]): 0 | Plant response rating, Rape (rape; [10]): 2 | Plant response rating, Rape (rape; [11]): 0 | Rape plant response rating (0 to 10 scale) (rape; Preemergence, Rate 125 g/ha): 0 | Rape plant response rating (rape; Preemergence, Rate 250 g/ha): 6 | Rape plant response rating (rape; Preemergence, Rate 500 g/ha): 10 | Rape plant response rating (rape; Rate 62 g/ha, Postemergence): 0 | Plant response rating, Rape (rape; [12]): 3 | Plant response rating, Corn (corn; [9]): 0 | Plant response rating, Corn (corn; [10]): 0 | Plant response rating, Corn (corn; [11]): 0 | Corn plant response rating (0 to 10 scale) (corn; Preemergence, Rate 125 g/ha): 2 | Corn plant response rating (corn; Preemergence, Rate 250 g/ha): 4 | Corn plant response rating (corn; Preemergence, Rate 500 g/ha): 9 | Corn plant response rating (corn; Rate 62 g/ha, Postemergence): 0 | Plant response rating, Corn (corn; [12]): 5 | Plant response rating, Giant foxtail (giant foxtail; [9]): 8 | Plant response rating, Giant foxtail (giant foxtail; [10]): 8 | Plant response rating, Giant foxtail (giant foxtail; [11]): 9 | Giant foxtail plant response rating (0 to 10 scale) (giant foxtail; Preemergence, Rate 125 g/ha): 10 | Giant foxtail plant response rating (giant foxtail; Preemergence, Rate 250 g/ha): 10 | Giant foxtail plant response rating (giant foxtail; Preemergence, Rate 500 g/ha): 10 | Giant foxtail plant response rating (giant foxtail; Rate 62 g/ha, Postemergence): 6 | Plant response rating, Giant foxtail (giant foxtail; [12]): 9 | Plant response rating, Wheat (wheat; [9]): 0 | Plant response rating, Wheat (wheat; [10]): 0 | Plant response rating, Wheat (wheat; [11]): 0 | Wheat plant response rating (0 to 10 scale) (wheat; Preemergence, Rate 125 g/ha): 0 | Wheat plant response rating (wheat; Preemergence, Rate 250 g/ha): 2 | Wheat plant response rating (wheat; Preemergence, Rate 500 g/ha): 7 | Wheat plant response rating (wheat; Rate 62 g/ha, Postemergence): 0 | Plant response rating, Wheat (wheat; [12]): 3 | Plant response rating, Nutsedge (purple nutsedge; [9]): 0 | Plant response rating, Nutsedge (purple nutsedge; [10]): 0 | Plant response rating, Nutsedge (purple nutsedge; [11]): 0 | Nutsedge plant response rating (0 to 10 scale) (purple nutsedge; Preemergence, Rate 125 g/ha): 0 | Nutsedge plant response rating (purple nutsedge; Preemergence, Rate 250 g/ha): 5 | Nutsedge plant response rating (purple nutsedge; Preemergence, Rate 500 g/ha): 10 | Nutsedge plant response rating (purple nutsedge; Rate 62 g/ha, Postemergence): 0 | Plant response rating, Nutsedge (purple nutsedge; [12]): 5
